Assay results from ChEMBL document CHEMBL3045663, “Synthesis and Activity of Novel Acaricidal/Insecticidal 2, 4-Diphenyl-1, 3-oxazolines” (J Pestic Sci, 2002).
≈ marks a conversion by molar mass, not a printed value.

Experiments:
Type in all cases: functional
[1] = system: Nephotettix cincticeps; assay: Insecticidal activity against Nephotettix cincticeps (green rice leafhopper) in compound treated rice seedlings assessed as mortality at 500 ppm
[2] = system: Tetranychus urticae; assay: Acaricidal activity against Tetranychus urticae (two-spotted spider mite) in compound treated kidney bean leaf assessed as larvicidal activity
[3] = system: Plutella xylostella; assay: Insecticidal activity against Plutella xylostella (diamondback moth) in compound treated radish leaf assessed as mortality at 500 ppm
[4] = system: Myzus persicae; assay: Insecticidal activity against Myzus persicae (green peach aphid) in compound treated radish leaf assessed as mortality at 500 ppm

| Structure (SMILES) | mortality at 500 ppm [1] | LC50 [2] | mortality at 500 ppm [3] | mortality at 500 ppm [4] |
| --- | --- | --- | --- | --- |
| CCc1ccc(C2COC(c3c(F)cccc3F)=N2)c(Cl)c1 (stereo unspecified) | 0% | 0.001 µg/mL (≈ 0.00311 µM) | 0% | 0% |
| CCCCCCc1ccc(C2COC(c3c(F)cccc3F)=N2)c(Cl)c1 (stereo unspecified) | 100% | < 0.001 µg/mL | 100% | 100% |
| COc1cc(Cl)ccc1C1COC(c2c(F)cccc2F)=N1 (stereo unspecified) | 100% | 0.1 µg/mL (≈ 0.309 µM) | 10% | 100% |
| CCOc1ccc(C2COC(c3c(F)cccc3F)=N2)cc1 (stereo unspecified) | 0% | 0.001 µg/mL (≈ 0.0033 µM) | 35% | 100% |
| CCCCCc1ccc(C2COC(c3c(F)cccc3F)=N2)c(OCC)c1 (stereo unspecified) | 100% | < 0.001 µg/mL | 35% | 85% |
| CCc1cccc(C2COC(c3c(F)cccc3F)=N2)c1 (stereo unspecified) | 60% | 10 µg/mL (≈ 34.8 µM) | 0% | 0% |
| Fc1ccc(C2COC(c3c(F)cccc3F)=N2)cc1 (stereo unspecified) | 10% | 0.1 µg/mL (≈ 0.361 µM) | 85% | 85% |
| COc1ccccc1C1COC(c2c(F)cccc2F)=N1 (stereo unspecified) | 10% | 10 µg/mL (≈ 34.6 µM) | 0% | 0% |
| Cc1ccc(C2COC(c3c(F)cccc3F)=N2)c(C)c1 (stereo unspecified) | 100% | 10 µg/mL (≈ 34.8 µM) | 35% | 100% |
| COc1cc(C(C)(C)C)ccc1C1COC(c2c(F)cccc2F)=N1 (stereo unspecified) | 35% | 0.001 µg/mL (≈ 0.0029 µM) | 85% | 100% |
| CCCCCCCCCCCCCOc1ccc(C2COC(c3c(F)cccc3F)=N2)cc1 (stereo unspecified) | 0% | 0.001 µg/mL (≈ 0.00219 µM) | 35% | 85% |
| CCOc1cc(F)ccc1C1COC(c2c(F)cccc2F)=N1 (stereo unspecified) | 100% | 0.001 µg/mL (≈ 0.00311 µM) | 85% | 100% |
| CCc1ccc(C2COC(c3c(F)cccc3F)=N2)cc1 (stereo unspecified) | 60% | 0.001 µg/mL (≈ 0.00348 µM) | 0% | 100% |
| COc1cccc(C2COC(c3c(F)cccc3F)=N2)c1 (stereo unspecified) | 0% | 1 µg/mL (≈ 3.46 µM) | 0% | 0% |
| Fc1cccc(F)c1C1=NC(c2cccc(Cl)c2)CO1 (stereo unspecified) | 0% | 1 µg/mL (≈ 3.4 µM) | 0% | 0% |
| CCCCCCCCCCCCc1ccc(C2COC(c3c(F)cccc3F)=N2)c(Cl)c1 (stereo unspecified) | 0% | 0.1 µg/mL (≈ 0.216 µM) | 60% | 0% |
| C[Si](C)(C)c1ccc(C2COC(c3c(F)cccc3F)=N2)cc1 (stereo unspecified) | 60% | < 0.001 µg/mL | 100% | 100% |
| Fc1cccc(C2COC(c3c(F)cccc3F)=N2)c1 (stereo unspecified) | 60% | 1 µg/mL (≈ 3.61 µM) | 0% | 0% |
| CC(C)c1ccc(C2COC(c3c(F)cccc3F)=N2)cc1 (stereo unspecified) | 60% | 0.001 µg/mL (≈ 0.00332 µM) | 0% | 100% |
| CCCCCCCCCCc1ccc(C2COC(c3c(F)cccc3F)=N2)c(Cl)c1 (stereo unspecified) | 0% | 0.1 µg/mL (≈ 0.23 µM) | 85% | 0% |
| COc1ccc(C2COC(c3c(F)cccc3F)=N2)cc1 (stereo unspecified) | 10% | 1 µg/mL (≈ 3.46 µM) | 0% | 85% |
| Fc1cccc(F)c1C1=NC(c2ccc(Br)cc2)CO1 (stereo unspecified) | 10% | 0.001 µg/mL (≈ 0.00296 µM) | 35% | 100% |
| CSc1ccc(C2COC(c3c(F)cccc3F)=N2)cc1 (stereo unspecified) | 0% | 0.1 µg/mL (≈ 0.327 µM) | 0% | 100% |
| Fc1ccc(C2COC(c3c(F)cccc3F)=N2)cc1Cl (stereo unspecified) | 10% | 0.1 µg/mL (≈ 0.321 µM) | 60% | 100% |
| Cc1cc(Cl)ccc1C1COC(c2c(F)cccc2F)=N1 (stereo unspecified) | 35% | 0.1 µg/mL (≈ 0.325 µM) | 10% | 100% |
| CCOc1ccccc1C1COC(c2c(F)cccc2F)=N1 (stereo unspecified) | 100% | 10 µg/mL (≈ 33 µM) | 10% | 0% |
| CCCCOc1cc(C(C)(C)C)ccc1C1COC(c2c(F)cccc2F)=N1 (stereo unspecified) | 0% | 0.01 µg/mL (≈ 0.0258 µM) | 35% | 100% |
| CCCCCCCCc1ccc(C2COC(c3c(F)cccc3F)=N2)c(F)c1 (stereo unspecified) | 0% | < 0.001 µg/mL | 100% | 100% |
| CCOc1cc(Br)ccc1C1COC(c2c(F)cccc2F)=N1 (stereo unspecified) | 100% | 0.1 µg/mL (≈ 0.262 µM) | 10% | 0% |
